Experimental data published in PubChem BioAssay (NCI).
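Step 1: Grow cells in 96-well plates. Step 2: Expose to compound for 48 hours at 5 concentrations. Step 3: Interpolate endpoints linearly; if unreached, use highest concentration. TGI marks complete inhibition of growth.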

Key:
Assay in all cases: growth of human tumour cells (NCI), 48 h
SK-MEL-28 melanoma = tested on: SK-MEL-28 melanoma
SN12C renal = tested on: SN12C renal
TK-10 renal = tested on: TK-10 renal
OVCAR-5 ovarian = tested on: OVCAR-5 ovarian
A549 NSCLC = tested on: A549 NSCLC
SF-539 CNS = tested on: SF-539 CNS
RPMI-8226 leukemia = tested on: RPMI-8226 leukemia
SK-MEL-5 melanoma = tested on: SK-MEL-5 melanoma
SF-295 CNS = tested on: SF-295 CNS
UACC-62 melanoma = tested on: UACC-62 melanoma
HCC-2998 colon = tested on: HCC-2998 colon
OVCAR-3 ovarian = tested on: OVCAR-3 ovarian
HOP-62 NSCLC = tested on: HOP-62 NSCLC
ACHN renal = tested on: ACHN renal
SNB-75 CNS = tested on: SNB-75 CNS
SR leukemia = tested on: SR leukemia
NCI/ADR-RES ovarian = tested on: NCI/ADR-RES ovarian
DU-145 prostate = tested on: DU-145 prostate

Row | SMILES | TGI (SK-MEL-28 melanoma) [µM] | TGI (SN12C renal) [µM] | TGI (TK-10 renal) [µM] | TGI (OVCAR-5 ovarian) [µM] | TGI (A549 NSCLC) [µM] | TGI (SF-539 CNS) [µM] | TGI (RPMI-8226 leukemia) [µM] | TGI (SK-MEL-5 melanoma) [µM] | TGI (SF-295 CNS) [µM] | TGI (UACC-62 melanoma) [µM] | TGI (HCC-2998 colon) [µM] | TGI (OVCAR-3 ovarian) [µM] | TGI (HOP-62 NSCLC) [µM] | TGI (ACHN renal) [µM] | TGI (SNB-75 CNS) [µM] | TGI (SR leukemia) [µM] | TGI (NCI/ADR-RES ovarian) [µM] | TGI (DU-145 prostate) [µM]
1 | COc1ccc(OC)c(/C=C2\CCc3ccccc3C2=O)c1 | 28.1 | 25.5 | 30.3 | 25.5 | 65.6 | 9.95 | 19.6 | 12.4 | 12.4 | 5.39 | 9.35 | 7.67 | 10.8 | 81.2 | 3.52 |  |  | 
2 | C(=C\C(Sc1ccccc1)c1ccccc1)/NNC1=NC(c2ccccc2)C(c2ccccc2)=NN1 (stereo not given) | > 100 | > 100 | > 100 | > 100 | > 100 | > 100 | 45.5 | > 100 | > 100 | > 100 | > 100 | > 100 | > 100 | > 100 | > 100 | 77.7 |  | 
3 | CC(C)OC/N=C(/N)NC#N | > 100 | > 100 | > 100 | > 100 | > 100 | > 100 | 61.2 | > 100 | > 100 | > 100 | > 100 | > 100 | > 100 | > 100 | > 100 | 49.6 |  | 
4 | CC1=NN2C(c3ccc([N+](=O)[O-])cc3)=CSC2=NC(C)(C)C1 | > 100 | > 100 | > 100 | > 100 | > 100 | > 100 | > 100 | > 100 | > 100 | > 100 | > 100 | > 100 | > 100 | > 100 | > 100 | > 100 |  | 
5 | COc1cc([C@@H]2c3cc4c(cc3[C@@H](OC(=O)c3cccc(N)c3)C3COC(=O)[C@@H]32)OCO4)cc(OC)c1O (stereo not given in full) | > 100 | 31.3 | > 100 | 60.1 | 25.9 | 13.8 | 43.9 | 14 | 35.4 | 24.1 | 28.7 | > 100 | 18 | 15.3 | > 100 | 17.9 |  | 
6 | CC(C)(C)OC(=O)[C@@H]1ON2O[C@H](OC3CCCC3(c3ccccc3)c3ccccc3)C[C@H]3OC(=O)[C@@H]1[C@H]32 (stereo not given in full) | > 100 | > 100 | > 100 | > 100 | > 100 | > 100 |  | > 100 | > 100 | > 100 |  | 54.1 | > 100 | > 100 | > 100 | > 100 | > 100 | > 100
7 | COc1cc2c(oc(=O)c3cc4cc([Si](C)(C)C)oc4c(OC)c32)c2cccc(O)c12 | > 100 | > 100 | > 100 | > 100 | > 100 | > 100 | > 100 | > 100 | > 100 | > 100 | > 100 | > 100 | > 100 | > 100 | > 100 | > 100 |  | 
8 | CS(=O)(=O)OCCCSCCSCCCOS(C)(=O)=O | > 100 | > 100 | > 100 | > 100 | > 100 | > 100 |  | > 100 | > 100 | > 100 | > 100 | > 100 | > 100 |  | > 100 | > 100 | > 100 | > 100
9 | C=CCCCN1CCCC(C)C1=S (stereo not given) | > 100 |  | > 100 | > 100 | > 100 | > 100 | > 100 | > 100 | > 100 | > 100 | > 100 | > 100 | > 100 | > 100 | > 100 | > 100 |  | 
10 | CC(=O)c1ccccc1NC(=O)C(=O)C(C(=O)c1ccccc1-c1ccccc1)C1OC(=O)c2ccccc21 (stereo not given) |  | 43.5 | 32 | 64.9 | 80.4 | 37.2 | > 100 | 33.8 | 52.4 | 38.8 | 30.9 | 48.1 | 44.9 | 51.2 | 51.7 | 88.9 |  | 
11 | Cn1c2ccccc2c2ccc3c(c21)C(=O)C(c1ccccc1)=CC3=O | 51 | 52.3 | > 100 | > 100 | > 100 | 47.2 | 99.2 | 87.5 | > 100 |  | 56.4 | 79.2 | > 100 | > 100 | > 100 |  |  | 
12 | CC(=O)NNc1nc(C)c(C(=O)NNC(=O)C(=O)Nc2c([N+](=O)[O-])ccc(C)c2C)s1 | > 100 | > 100 | > 100 | > 100 | > 100 | > 100 | > 100 | > 100 | > 100 | > 100 | > 100 | > 100 | > 100 | > 100 |  | > 100 |  | 
13 | Nc1nc(N)c2ncn(CCOC(c3ccccc3)P(=O)(O)O)c2n1 (stereo not given) | > 100 | > 100 | > 100 | > 100 | > 100 | > 100 |  | > 100 | > 100 | > 100 | > 100 | > 100 |  | > 100 | > 100 | > 100 |  | 
14 | COCN(C)c1nc(N(C)C)nc(N(C)C)n1 | > 100 | > 100 | > 100 | > 100 | > 100 | > 100 | > 100 | > 100 | > 100 | > 100 | > 100 | > 100 | > 100 | > 100 | > 100 | > 100 |  | 
15 | CC1(C)c2ccccc2N2O[C@@H]3C(=O)N(c4ccccc4)C(=O)[C@@H]3C21c1ccccc1 (stereo not given in full) | > 100 | > 100 | > 100 |  | > 100 | > 100 | > 100 | > 100 | > 100 | > 100 | > 100 | > 100 | > 100 |  | > 100 |  |  | 
16 | COC(=O)c1c(-c2cc(OC)c(OC)c(OC)c2)oc2ccccc2c1=O |  | > 100 | > 100 | > 100 | > 100 | > 100 | > 100 | > 100 | > 100 | > 100 | > 100 | > 100 | > 100 | > 100 | > 100 |  |  | 
17 | CCN(CC)C(=S)SCC(=O)Nc1nc2c(s1)CCCC2 | > 100 | > 100 | > 100 | > 100 | > 100 | > 100 | > 100 | 49.7 | > 100 |  | > 100 |  | > 100 | > 100 | > 100 | 90.7 |  | 
18 | CC1(C)Cc2c(oc3ncnc(N)c23)CS1 |  | > 100 |  | > 100 | > 100 | > 100 | > 100 | > 100 | > 100 | > 100 | > 100 | > 100 | > 100 | > 100 | > 100 | > 100 |  | 
19 | COc1ccc(OC)c(NC(=O)C(=O)CC(=O)c2sc(-n3nc(-c4ccccc4)cc3-c3ccccc3)nc2C)c1 |  | > 100 | > 100 | > 100 | > 100 | > 100 | > 100 |  | > 100 | > 100 | > 100 | > 100 | > 100 |  | > 100 | > 100 |  | 
20 | COc1ccc(CCNC(=O)c2ccccc2C2c3ccc(OCc4ccccc4)cc3Oc3cc(OCc4ccccc4)ccc32)cc1OC | > 100 | > 100 | > 100 | > 100 | > 100 |  | > 100 | > 100 | > 100 | > 100 | > 100 | > 100 | > 100 | > 100 |  | > 100 | > 100 | > 100
21 | COC(=O)CC(C(C(=O)OC)C(=O)OC)N1C(=O)OC(c2ccccc2)C1c1ccccc1 (stereo not given) | > 100 | > 100 | > 100 | > 100 | > 100 | > 100 | > 100 | > 100 | > 100 | > 100 | 93.1 | > 100 | > 100 | > 100 | > 100 |  |  | 
22 | N#Cc1ccc(Oc2ccccc2)cc1C#N | > 100 | > 100 | > 100 | > 100 | > 100 | > 100 | > 100 | > 100 | > 100 | > 100 | > 100 | > 100 | > 100 | > 100 | > 100 | 49.7 |  | 
23 | C[n+]1c2ccccc2c(CNCC(=O)O)c2ccccc21 |  | 2.81 | 3.06 | 28.5 | 13.1 | 5.19 | 1.52 | 14.4 | 17.2 | 3.83 | 18.1 | 6.2 | 19.1 | 2.59 | 20.9 |  |  | 
